Source: ChEMBL document CHEMBL1134423, “Synthesis and acetylcholinesterase inhibition of 5-desamino huperzine A derivatives” (Bioorg Med Chem Lett, 2001)
pIC50, pKi: −log10 of the molar value.

Experiments:
Acetylcholinesterase [1] = molecular target: T1, Acetylcholinesterase (Rattus norvegicus, UniProt P37136)
T1 sequence (P37136 whole entry): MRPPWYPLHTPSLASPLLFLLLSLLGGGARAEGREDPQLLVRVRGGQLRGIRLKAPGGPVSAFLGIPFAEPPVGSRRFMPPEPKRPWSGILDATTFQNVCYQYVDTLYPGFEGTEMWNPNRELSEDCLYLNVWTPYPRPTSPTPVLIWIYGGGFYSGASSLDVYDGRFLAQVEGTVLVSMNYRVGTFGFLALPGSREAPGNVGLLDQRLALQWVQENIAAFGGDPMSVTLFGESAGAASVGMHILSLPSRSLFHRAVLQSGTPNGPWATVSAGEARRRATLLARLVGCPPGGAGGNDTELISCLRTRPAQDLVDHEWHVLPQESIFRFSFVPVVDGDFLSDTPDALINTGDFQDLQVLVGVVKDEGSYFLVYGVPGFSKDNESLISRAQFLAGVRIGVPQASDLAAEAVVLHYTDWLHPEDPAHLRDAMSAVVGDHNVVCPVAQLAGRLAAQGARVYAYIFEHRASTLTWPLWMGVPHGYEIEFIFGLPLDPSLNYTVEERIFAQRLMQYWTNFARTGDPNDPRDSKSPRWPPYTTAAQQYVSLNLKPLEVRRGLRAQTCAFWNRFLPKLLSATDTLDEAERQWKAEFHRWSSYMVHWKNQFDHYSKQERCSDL

Acetylcholinesterase [2] = molecular target: T1, Acetylcholinesterase; assay: Compound was tested for its ability to inhibit acetylcholinesterase (AChE) in rat brain; type: tissue-based

SMILES | pKi (Acetylcholinesterase [1]) | pIC50 (Acetylcholinesterase [2]) | pKi (Acetylcholinesterase [2])
C/C=C1\[C@H]2C=C(C)C[C@]1(N)c1ccc(=O)[nH]c1C2 [HUPERZINE A] | 7.62 | – | –
C/C=C1/C2C=C(C)CC1c1ccc(=O)[nH]c1C2 (configuration not stated) | – | 4.26 | 4.91
CC1=CC2Cc3nc(O)ccc3C(C1)C2=O (configuration not stated) | – | < 3.30 | < 3.30
C/C=C1\C2C=C(C)CC1c1ccc(O)nc1C2 (configuration not stated) | – | 4.89 | 5.70
